Assay results taken from the NIST ThermoML archive (doi:10.1021/je020125e).
Values joined by “and” are separate entries in the source; they are usually repeats but may differ in a detail not shown here. Equal entries are not always repeated.

Conditions: 101.33 kPa, Liquid, Hot wire method

CCCC(C)CC (stereo not given) [3-methylhexane]
Conditions	thermal conductivity [W/m/K]	thermal diffusivity
256.62 K	0.1236	–
257 K	0.1233	–
257.38 K	0.1231	–
257.59 K	–	8.59e-08 m2/s
258.63 K	–	8.5e-08 m2/s
259.54 K	–	8.43e-08 m2/s
269.72 K	0.1196	–
270.11 K	0.1193	–
270.44 K	0.1191	–
270.7 K	–	8.14e-08 m2/s
271.73 K	–	8.1e-08 m2/s
272.58 K	–	8.04e-08 m2/s
284.9 K	0.115	–
285.32 K	0.1148	–
285.66 K	0.1146	–
285.92 K	–	7.81e-08 m2/s
287.01 K	–	7.78e-08 m2/s
287.89 K	–	7.72e-08 m2/s
296.55 K	0.1113	–
296.95 K	0.1113	–
297.35 K	0.111	–
297.62 K	–	7.5e-08 m2/s
298.65 K	–	7.47e-08 m2/s
299.67 K	–	7.41e-08 m2/s
311.54 K	0.1073	–
311.97 K	0.107	–
312.34 K	0.1068	–
312.6 K	–	7.22e-08 m2/s
313.66 K	–	7.08e-08 m2/s
314.6 K	–	7.07e-08 m2/s
321.52 K	0.1046	–
321.98 K	0.1042	–
322.34 K	0.104	–
322.62 K	–	7.02e-08 m2/s
323.75 K	–	6.94e-08 m2/s
324.66 K	–	6.86e-08 m2/s and 6.87e-08 m2/s
332.24 K	0.1017	–
332.69 K	0.1013	–
333.09 K	0.1011	–
333.3 K	–	6.69e-08 m2/s
334.41 K	–	6.61e-08 m2/s
335.4 K	–	6.61e-08 m2/s
343.42 K	0.09857	–
343.89 K	0.09831	–
344.28 K	0.09813	–
344.3 K	0.09807	–
344.46 K	–	6.42e-08 m2/s
345.61 K	–	6.37e-08 m2/s
346.56 K	–	6.32e-08 m2/s
346.62 K	–	6.37e-08 m2/s

CCC(C)CC [3-methylpentane]
Conditions	thermal conductivity [W/m/K]	thermal diffusivity [m2/s]
256.68 K	0.1196	–
257 K	0.1195	–
257.43 K	0.1193	–
257.89 K	–	8.31e-08
258.67 K	–	8.27e-08
259.75 K	–	8.22e-08
276.71 K	0.1129	–
277.02 K	0.1128	–
277.46 K	0.1126	–
277.98 K	–	7.74e-08
278.74 K	–	7.71e-08
279.82 K	–	7.67e-08
296.39 K	0.1066	–
296.74 K	0.1065	–
297.2 K	0.1063	–
297.69 K	–	7.21e-08
298.55 K	–	7.2e-08
299.63 K	–	7.16e-08
314.22 K	0.1013	–
314.59 K	0.1012	–
315.08 K	0.101	–
315.57 K	–	6.8e-08
316.44 K	–	6.8e-08
317.58 K	–	6.75e-08
328.36 K	0.09736	–
328.75 K	0.09723	–
329.26 K	0.09705	–
329.73 K	–	6.51e-08
330.64 K	–	6.49e-08
331.82 K	–	6.44e-08
